Reference: article PMC11121924, “Protopine and Allocryptopine Interactions with Plasma Proteins” (International Journal of Molecular Sciences, 2024)

What was measured:
[1] = molecular target: T1, α-1-acid glycoprotein (AAG, orosomucoid) (Homo sapiens, UniProt P02763); assay: UV-Vis absorption titration (Benesi-Hildebrand); quinaldine red displacement by fluorescence; assay type: binding
T1 construct: gene ORM1

[2] = molecular target: T2, human serum albumin (HSA) (Homo sapiens, UniProt P02768); assay: UV-Vis absorption titration (Benesi-Hildebrand); dPhe marker displacement by fluorescence; assay type: binding
T2 construct: gene ALB
T2 sequence (P02768 25-609): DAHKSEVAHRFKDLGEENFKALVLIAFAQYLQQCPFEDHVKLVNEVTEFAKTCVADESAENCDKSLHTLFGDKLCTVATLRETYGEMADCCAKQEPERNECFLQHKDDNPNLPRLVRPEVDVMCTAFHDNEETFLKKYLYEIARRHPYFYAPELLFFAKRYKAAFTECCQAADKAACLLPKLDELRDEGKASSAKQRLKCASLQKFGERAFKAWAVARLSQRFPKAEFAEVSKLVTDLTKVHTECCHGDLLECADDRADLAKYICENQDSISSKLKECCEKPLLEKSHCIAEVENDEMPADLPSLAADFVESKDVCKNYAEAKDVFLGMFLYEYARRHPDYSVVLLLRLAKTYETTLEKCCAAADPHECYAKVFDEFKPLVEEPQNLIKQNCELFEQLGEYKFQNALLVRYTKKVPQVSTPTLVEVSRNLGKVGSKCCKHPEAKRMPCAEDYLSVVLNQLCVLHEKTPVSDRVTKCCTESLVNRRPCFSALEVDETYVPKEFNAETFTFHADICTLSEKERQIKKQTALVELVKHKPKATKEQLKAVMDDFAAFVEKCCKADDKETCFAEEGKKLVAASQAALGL

T1 sequence (P02763 19-201): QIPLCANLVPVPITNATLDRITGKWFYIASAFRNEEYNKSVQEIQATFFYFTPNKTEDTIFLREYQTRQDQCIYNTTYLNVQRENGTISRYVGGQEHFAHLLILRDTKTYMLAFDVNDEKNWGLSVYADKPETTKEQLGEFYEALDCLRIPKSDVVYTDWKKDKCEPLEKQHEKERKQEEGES

**Q.** With `COc1ccc2c(c1OC)CN(C)CCc1cc3c(cc1C(=O)C2)OCO3` [ACP, allocryptopine] as the compound, how does the Kd ([1]; read-out: Kapp.10^4 [dm^3mol^-1] (converted)) read?
**A.** 44.6 µM

**Q.** What about the Kd [2] of the same compound?
**A.** 19.9 µM

**Q.** How did the “Kapp.10^4 [dm^3mol^-1]” value [1] turn out when `CN1CCc2cc3c(cc2C(=O)Cc2ccc4c(c2C1)OCO4)OCO3` [PP, protopine] was run?
**A.** 1.34 ± 0.0.03

**Q.** And the Kd [2]?
**A.** 46.9 µM
